{
  "source": "patent US8207206B2",
  "about": "“(S,R)-3-phenyl-4,5 dihydro-5-isoxazole acetic acid-nitric oxide and use thereof as anti-cancer and antiviral agent” (OncoNOx APS, priority 2007, dated 2012)",
  "key": {"C6 cells [1]": {"test_system": "C6 cells", "assay": "ROS measurement by DHR fluorescence (flow cytometry)", "type": "cell-based, rat", "settings": "C6, 25 μg/ml, 24 h", "procedure": "The cells grown in the 6-well plate were stained with 1 μM dihydrorhodamine 123 (DHR) 20 min before the treatment with the test compound. At the end of the cultivation period the cells were detached, washed and resuspended in PBS. Analysis of ROS release was performed with a FACSCalibur and analyzed using CellQuest Pro software (Kaludjerovic 2005)."}, "C6 cells [2]": {"test_system": "C6 cells", "assay": "LDH release assay (cell death)", "type": "cell-based, rat", "settings": "C6, dose-dependent (24 h) and time-dependent (25 μg/ml), significant after 18 h", "procedure": "(§1) As a marker of necrotic cell death, the release of intracellular enzyme LDH, which mediates the conversion 2,4-dinitrophenylhydrazine into visible hydrazone precipitate in the presence of pyruvate, was measured. The cells were seeded in flat-bottom 96-well plates as indicated above and the assay was performed after 24 h incubation, as previously described (Decker et al). The percentage of dead cells was determined using the following formula: [(E−C)/(T−C)]×100, wherein E is the experimental absorbance of treated cultures measured at 492 nm, C is the absorbance of supernatants of control untreated cells, and T is the absorbance corresponding to the maximal (100%) LDH release of Triton-lysed cells. Cell cycle analysis and apoptosis detection were carried out exactly as described in the literature (Mijatovic CMLS 2005). Acidic vesicular organelles, which characterise autophagy, are stained by vital dye acridin orange. The intensity of red fluorescence is proportional to the acidity and volume of the organelles, while the cytoplasm and nucleolus emits bright green and dim red (Kanzawa 2004). […] Green (510-530 nm) and red (>650 nm) fluorescence emission from 10^4 cells illuminated with blue (488 nm) excitation light was measured with a FACS Calibur and analyzed using CellQuest software."}, "C6 cells [3]": {"test_system": "C6 cells", "assay": "Cell cycle analysis and apoptosis detection (PI staining, flow cytometry)", "type": "cell-based, rat", "settings": "C6, 25 μg/ml, 24 h", "procedure": "as §1"}, "B16 melanoma": {"test_system": "B16 melanoma", "assay": "B16 melanoma in C57BL/6 mice, treatment with GIT27-NO", "type": "in vivo", "procedure": "Primary tumors were induced by subcutaneous (s.c) injection of 2×10^5 B16 melanoma cells in the dorsal right lumbosacral region of syngeneic C57BL/6 mice. […] GIT27-NO was prepared immediately before treatment and was applied i.p. at a dose of 0.5 mg/mouse for 14 consecutive days. The animals were observed until day 30, then sacrificed and tumor growth was determined by three-dimensional measurements of individual tumors from each mouse. Tumor volume was calculated using the following formula: [0.52×a×b^2], where a is the longest and b is the shortest diameter (Smagur et al)."}, "ConA-induced hepatitis": {"test_system": "ConA-induced hepatitis", "assay": "Hepatitis induced by concanavalin (ConA) injection in NMRI mice", "type": "in vivo", "settings": "prophylactic, all tested doses (0.5 and 1 i.p., 5 mg/mouse p.o.), -24 and -1 h prior to ConA, blood 8 h after ConA, vs vehicle", "procedure": "ConA-induced hepatitis is a cell-mediated immunoinflammatory condition similar to different immunoinflammatory conditions of liver diseases in humans that can be induced in mice by a single intravenous injection of ConA. This disease is characterized by a marked increase in the plasma levels of transaminase shortly (8-24 hours) after ConA challenge and simultaneous infiltration of the liver with neutrophils, macrophages and T cells followed by apoptosis and necrosis of the hepatocytes.\nHepatitis was induced by ConA (Sigma Chemical, St. Louis, Mo.) injection into the tail veins in six to 9 weeks Naval Medical Research Institute (NMRI) male mice. Four groups of mice were treated or i.p. with Git27-NO at the doses of 0.5 and 1 or p.o. at 5 mg/mouse or with the vehicle, −24 and −1 hours prior to ConA. The animals were sacrificed for blood collection 8 hours after Con A injection and plasma alanine aminotransferase (ALT) activity was determined by a standard photometric assay using a bichromatic analyzer."}, "C6 cells [4]": {"test_system": "C6 cells", "assay": "CFSE staining, tumor cell proliferation rate (flow cytometry)", "type": "cell-based, rat", "settings": "C6, GIT27-NO 25 μg/ml, after 48 h; control 8.37%", "procedure": "The cells were seeded in flat-bottom 96-well plates (10^4 cells/well) in a final volume of 200 μl of culture medium, incubated overnight, then treated with different concentrations of the test compound. After 24 h incubation, cell viability was assessed using 3-4,5-dimethylthiazol-2-yl)-2,5-diphenyltetrazolium bromide (MTT) test, based on the mitochondrial-dependent reduction of MTT to formazan, or by crystal violet (CV) staining of adherent cells, as previously described (Mijatovic et al CMLS 2004). The results are presented as % of control values obtained in untreated cultures. The rate of cell proliferation was also determined using flow cytometric analysis of cells labeled with CFSE (Kang 2005). The cells were detached, added with 1.5 μM CFSE and allowed to stand for 15 min at 37° C., then washed twice and seeded in 6-well plates at 2×10^5. The cells were treated with the compound for 24 and 48 h, trypsinized and washed twice. Finally, the cells were resuspended in PBS and analyzed by flow cytometry. Green fluorescence emission from cells illuminated with excitation light of 488 nm was measured with a FACS Calibur (BD, Heidelberg, Germany) and analyzed using the CellQuest software."}, "B16 cells": {"test_system": "B16 cells", "assay": "Autophagy detection by acridin orange staining (flow cytometry)", "type": "cell-based, mouse", "settings": "B16, 25 μg/ml, 24 h", "procedure": "as §1"}},
  "data": [
    {"compound": "N#Cc1c(COC(=O)CC2CC(c3ccccc3)=NO2)no[n+]1[O-]", "note": "(racemic) [GIT27-NO, (S,R)-3-phenyl-4,5 dihydro-5-isoxazole acetic acid-nitric oxide]", "values": [
      {"measurement": "intracellular production of ROS (DHR fluorescence)", "setting": "C6 cells [1]", "value": "markedly increased"},
      {"measurement": "LDH release", "setting": "C6 cells [2]", "value": "induced LDH release"},
      {"measurement": "cell cycle effect", "setting": "C6 cells [3]", "value": "cell cycle arrest in G0/G1 phase"},
      {"measurement": "percentage of cells in subG compartment (hypodiploid cells)", "setting": "C6 cells [3]", "value": "< 10", "unit": "%"},
      {"measurement": "tumor growth compared to untreated control animals", "setting": "B16 melanoma; B16 melanoma, 0.5 mg/mouse/day from day 10", "value": "significant reduction of tumor growth"},
      {"measurement": "survival during follow-up period", "setting": "B16 melanoma; B16 melanoma, 30 days follow-up, 2 animals died in control group", "value": "survived 30 days"},
      {"measurement": "Mean tumor volume", "setting": "B16 melanoma; s.c. B16 melanoma, i.p. 0.5 mg/mouse/day from day 10, measured 30 days after implantation, control 2.97 ± 6.4, p < 0.05", "value": "0.82 ± 1.2"},
      {"measurement": "plasma ALT activity", "setting": "ConA-induced hepatitis", "value": "significantly reduced"},
      {"measurement": "CFSE R1 = parent population", "setting": "C6 cells [4]", "value": 42.53, "unit": "%"},
      {"measurement": "acidic autophagic vesicles (red fluorescence of acridin orange)", "setting": "B16 cells", "value": "significantly increased the intensity of bright red fluorescence"}
    ]}
  ]
}
